According to ChEMBL document CHEMBL3430912, “GSK Tres Cantos Anti-Kinetoplastid Screening (TCAKS) Data”:

Experiments:
Trypanosoma cruzi [1] = assay: GSK_TCAKS: pIC50 Trypanosoma cruzi viability assay using beta-GAL activity. This assay was run at single shot at 5uM compound concentration per well. The biological reagents consisted of NIH-3T3 host cells and trypomastigotes parasitic cells; both cell types were set to a 3.3 * 10^5 cells/mL dilution in assay DMEM by means of a CASY cell counter device using a 60um capillary. 6 uL of the mixture were dispensed per well (about 1 * 10^3 host-cells and 1 * 10^3 parasites) with a Multidrop Combi dispenser. […] In all wells, the percentage of DMSO never exceeded 0.5%. Plates incubated for four days at 37C, 5% CO2. The substrate used for the assay fluorescence intensity (FLINT) readout was resorufin-beta-D-galactopiranoside (Sigma-Aldrich) at 5uM per well. It was diluted in PBS supplemented with the soft detergent Igepal (Fluka).; format: functional, organism-based, Mus musculus; conditions: Tulahuen, NIH3T3
[2] = tested on: Trypanosoma brucei brucei; assay: GSK_TCAKS: pIC50 Trypanosoma brucei viability assay using fluorescence intensity. Assay plates (1536-well) were prepared by dispensing 25nL of compound solution per well using an Echo acoustic dispenser (Labcyte).; format: functional, organism-based; conditions: Lister 427, 2 h
Leishmania donovani [3] = assay: GSK_TCAKS: pIC50 Leishmania donovani viability assay using fluorescence intensity. Assay plates (1536-well) were prepared by adding 30nL per well of compound. For single shot assay, the final compound concentration was 5uM. […] Briefly, eGFP LdBOB axenic amastigotes were harvested, fixed and counted in a CASY cell counter (Roche-Applied Science). A final concentration of 1.5 * 10^5 cells per well were prepared in amastigote media containing 500 U/mL penicillin/streptomycin (Invitrogen) and 6uL was dispensed to each experimental well using a Multidrop Combi dispenser (Thermo Scientific). 6uL of assay media was dispensed to control columns used as reference for 100% compound response. Following incubation for 72 h at 37C, 5% CO2, 2 uL of resazurin was added to each well at a final concentration of 0.5 mM in phosphate buffered saline (PBS) with IGEPAL (Sigma-Aldrich), 0.05% (v/v).; format: functional, organism-based
Leishmania donovani [4] = assay: GSK_TCAKS: pIC50 Leishmania donovani Imaging: Infected Macrophages. Assay plates (384-well) were prepared by adding 250nL of compound to each well. For single shot assay, the final compound concentration was 5 uM. […] Automated image analysis was performed with a script developed on Acapella High Content Imaging and Analysis Software (PerkinElmer). Output: Percent of infected macrophage cells were reported for each well.; format: functional, organism-based, Homo sapiens; conditions: THP-1
[5] = GSK_TCAKS: pIC50 HepG2 human cell line viability assay using luminiscence. […] Seeding density was checked to ensure that new mono-layers were not more than 50% confluent at the time of harvesting. Cell suspension was added to 500 mL of the same medium at a final density of 1.2 * 10^5 cells/mL. This cell suspension was dispensed (25 uL, 3000 cells per well) into 384-well clear-bottom plates using a Multidrop Combi dispenser. Prior to addition of the cell suspension, the screening compounds (250 nL) were pre-dispensed into the plates with an Echo liquid handler. Plates were incubated for 48 h at 37C, 5% CO2. After incubation, plates equilibrated at room temperature for 30 min before proceeding to develop the luminescent signal. The signal developer, CellTiter-Glo Reagent, was allowed to equilibrate at room temperature for 30 min and added to the plates (25uL per well) using a Multidrop Combi dispenser. Plates were left for 10 min at room temperature for stabilization and then read using a ViewLux.; format: toxicity, cell-based
Leishmania donovani [6] = assay: GSK_TCAKS: pIC50 Leishmania donovani Imaging: THP-1 Host Macrophages. Assay plates (384-well) were prepared by adding 250nL of compound to each well. For single shot assay, the final compound concentration was 5 uM. […] Automated image analysis was performed with a script developed on Acapella High Content Imaging and Analysis Software (PerkinElmer). Output: THP-1 cell count were reported for each well.; format: functional, organism-based, Homo sapiens
Leishmania donovani [7] = assay: GSK_TCAKS: pIC50 Leishmania donovani Imaging: Amastigotes/Macrophages. Assay plates (384-well) were prepared by adding 250nL of compound to each well. For single shot assay, the final compound concentration was 5 uM. […] Automated image analysis was performed with a script developed on Acapella High Content Imaging and Analysis Software (PerkinElmer). Output: Average number of amastigotes per macrophage cell were reported for each well.; format: functional, organism-based, Homo sapiens; conditions: THP-1
Trypanosoma cruzi [8] = assay: (§1) GSK_TCAKS: pIC50 Trypanosoma cruzi Imaging: Infected Cells. […] Cells were then washed once with PBS before infection. T. cruzi trypomastigotes, collected at days 5 to 8 after infection from LLC-MK2 parasite infected cultures, were allowed to swim out for 4h at 37C from a centrifuged pellet (2,500 rpm/10 min/room temperature). Trypomastigotes were then collected and counted in a CASY Cell Counter. Trypomastigotes, in supplemented DMEM, were added to H9c2 cultures in a multiplicity of infection of 1 and incubated for 18 h. Cells were washed once with PBS before incubation of the infected H9c2 monolayer with trypsin (Life-Technologies) to detach cells from the flask. Cells were counted in a CASY Cell Counter using a 150 um capillary and their density set at 5 * 10^4 cells per mL in supplemented assay DMEM. Infected H9c2 were dispensed into 384-well poly-lysine coated assay plates at 50uL per well using a Multidrop Combi dispenser. After seeding them, the plates were incubated at 37C, 5% CO2 for 72h. Cultures were then fixed and stained by addition of 50 uL of a solution containing 8% formaldehyde and 4 uM DRAQ5 DNA dye (BioStatus, UK) per well. […] Five images were collected per well for reliable statistical analysis. Automated image analysis was performed with a script developed on Acapella High Content Imaging and Analysis Software (PerkinElmer). Output: percentage of infected cells per well as a second infection marker.; format: functional, organism-based, Rattus norvegicus; conditions: H9c2, 4 h
[9] = target: Sterol 14-alpha demethylase (Trypanosoma cruzi (strain CL Brener), UniProt Q7Z1V1); assay: GSK_TCAKS: pIC50 CYP51 from Trypanosoma cruzi.; format: functional
Chain of Sterol 14-alpha demethylase (Q7Z1V1 whole entry): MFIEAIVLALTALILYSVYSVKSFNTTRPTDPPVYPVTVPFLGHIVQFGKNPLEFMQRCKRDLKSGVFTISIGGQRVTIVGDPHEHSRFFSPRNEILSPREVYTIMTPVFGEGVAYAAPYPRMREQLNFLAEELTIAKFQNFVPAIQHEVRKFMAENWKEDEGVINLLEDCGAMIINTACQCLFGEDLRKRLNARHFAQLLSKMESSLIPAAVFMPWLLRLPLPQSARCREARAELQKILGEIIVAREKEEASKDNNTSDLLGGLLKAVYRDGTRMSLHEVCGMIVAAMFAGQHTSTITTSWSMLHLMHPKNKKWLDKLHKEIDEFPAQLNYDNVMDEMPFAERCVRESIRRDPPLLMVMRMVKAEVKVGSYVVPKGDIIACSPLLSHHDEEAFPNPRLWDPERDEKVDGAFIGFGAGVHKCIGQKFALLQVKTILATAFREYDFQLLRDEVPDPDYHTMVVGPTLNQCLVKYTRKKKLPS

Trypanosoma cruzi [10] = assay: as §1, with “H2C9” for “Trypanosoma cruzi”, “H9c2 Host Cardiomyocytes.” for “Infected Cells.”, “Number” for “percentage”, “H9c2 Host Cardiomyocytes nuclei to determine drug-related cytotoxicity.” for “infected cells per well as a second infection marker.”; format: functional, organism-based, Rattus norvegicus; conditions: H9c2, 4 h
Trypanosoma cruzi [11] = assay: GSK_TCAKS: pIC50 Trypanosoma cruzi Imaging: Amastigotes/Cell. […] Cells were then washed once with PBS before infection. T. cruzi trypomastigotes, collected at days 5 to 8 after infection from LLC-MK2 parasite infected cultures, were allowed to swim out for 4h at 37C from a centrifuged pellet (2,500 rpm/10 min/room temperature). Trypomastigotes were then collected and counted in a CASY Cell Counter. Trypomastigotes, in supplemented DMEM, were added to H9c2 cultures in a multiplicity of infection of 1 and incubated for 18 h. Cells were washed once with PBS before incubation of the infected H9c2 monolayer with trypsin (Life-Technologies) to detach cells from the flask. Cells were counted in a CASY Cell Counter using a 150 um capillary and their density set at 5 * 10^4 cells per mL in supplemented assay DMEM. Infected H9c2 were dispensed into 384-well poly-lysine coated assay plates at 50uL per well using a Multidrop Combi dispenser. After seeding them, the plates were incubated at 37C, 5% CO2 for 72h. Cultures were then fixed and stained by addition of 50 uL of a solution containing 8% formaldehyde and 4 uM DRAQ5 DNA dye (BioStatus, UK) per well. […] Five images were collected per well for reliable statistical analysis. Automated image analysis was performed with a script developed on Acapella High Content Imaging and Analysis Software (PerkinElmer). Output: number of amastigotes per cell as infection level measurement.; format: functional, organism-based, Rattus norvegicus; conditions: H9c2, 4 h
[12] = tested on: Trypanosoma brucei brucei; assay: GSK_TCAKS: pIC50 Trypanosoma brucei viability assay using luminiscence. Assay plates (1536-well) were prepared. T. brucei cultures were harvested and counted in a CASY cell counter. A parasite suspension was prepared at a final concentration of 5 * 10^4 cells/mL in complete HMI9 medium and 6uL was dispensed to all wells containing compounds using a Multidrop Combi dispenser. 6uL of HMI9 media with 0.4% DMSO were dispensed to control columns. Plates were incubated for 24 h at 37C, 5% CO2 then tempered for 10 min at room temperature. ATP content was quantified by adding 4 uL of CellTiter-Glo Reagent (Promega) according to the manufacturer's instructions. Luminescence was measured using a ViewLux.; format: functional, organism-based; conditions: Lister 427, CASY

| Compound | IC50 (Trypanosoma cruzi [1]) [µM] | IC50 [2] [µM] | IC50 (Leishmania donovani [3]) [µM] | IC50 (Leishmania donovani [4]) [µM] | IC50 at 48 h [5] [µM] | IC50 (Leishmania donovani [6]) [µM] | IC50 (Leishmania donovani [7]) [µM] | IC50 (Trypanosoma cruzi [8]) [µM] | IC50 [9] [µM] | IC50 (Trypanosoma cruzi [10]) [µM] | IC50 (Trypanosoma cruzi [11]) [µM] | IC50 [12] [µM] |
| --- | --- | --- | --- | --- | --- | --- | --- | --- | --- | --- | --- | --- |
| O=C(Nc1nc(-c2ccccn2)cs1)c1ccccc1-n1cnnn1 | 3.55 | 0.631 | 3.16 | 6.31 | 1.58 | 5.01 | 3.98 | 3.16 | > 100 | 5.01 | 2 | 0.631 |
| COc1ccc(S(=O)(=O)Nc2ccc(C(=O)Nc3nc(-c4ccccn4)cs3)cc2)cc1 | 0.891 | 0.794 | 1 | 0.398 | 63.1 | 10 | 0.158 | 0.794 | 0.398 | 6.31 | 0.631 | 0.631 |
| COc1cccc2sc(CN(C)C(=O)C3CNCCN3c3ccc(F)cc3)c(C)c12 (configuration not stated) | 0.398 | 0.158 | 31.6 | 6.31 | 12.6 | 12.6 | 3.98 | 0.2 | 0.251 | 7.94 | 0.158 | 0.251 |
| CCCCCNC(=O)c1c[nH]c2ccc(S(=O)(=O)N(C)c3ccc(OCC)cc3)cc2c1=O | 31.6 | 0.316 | > 50.1 | > 50.1 | > 100 | > 50.1 | > 50.1 | > 50.1 | 1.58 | > 50.1 | > 50.1 | 0.251 |
| CCOc1ccc2nc(NC(=O)c3ccc([N+](=O)[O-])s3)sc2c1 | 1.78 | 1.26 | 2.51 | 6.31 | 31.6 | > 50.1 | 5.01 | 1.26 | > 100 | 10 | 1 | 2.51 |
| O=C(NCC(c1cccs1)N1CCOCC1)c1ccc([N+](=O)[O-])o1 (configuration not stated) | 3.16 | 0.316 | 31.6 | 25.1 | 20 | 25.1 | 15.8 | 15.8 | 10 | 5.01 | 15.8 | 0.316 |
| CCN(CC)c1ncc(C(=O)c2ccc([N+](=O)[O-])o2)s1 | 3.98 | 0.1 | 5.01 | 10 | 15.8 | 6.31 | 10 | 12.6 | 39.8 | 5.01 | 7.94 | 0.398 |
| O=C(Nc1nc(-c2ccccn2)cs1)C1CCc2ccccc2C1 (configuration not stated) | 2 | 3.16 | 5.01 | 0.631 | 39.8 | 7.94 | 0.398 | 2.51 | 25.1 | 3.98 | 2 | 3.16 |
| COc1ccc(-c2cnc(NC(=O)c3ccc(F)cc3)n2C)cc1 | 2.51 | 1.26 | 3.16 | 1.26 | > 100 | > 50.1 | 0.501 | 5.01 | 10 | > 50.1 | 2 | 3.16 |
| O=C(O)[C@H]1C[C@@H]1c1ccc(-c2ccc(CN(CCc3ccccn3)C(=O)C3CCC3)cc2)cc1 | > 50.1 | 0.631 | 25.1 | > 50.1 | > 100 | > 50.1 | > 50.1 | 31.6 | 20 | > 50.1 | 31.6 | 0.794 |
| CN(C)CCN(C)Cc1ccc(Cl)cc1NS(=O)(=O)c1ccc(Cl)c(Cl)c1 | 1.12 | 7.94 | 5.01 | 6.31 | 31.6 | 31.6 | 3.98 | 2 | 31.6 | 5.01 | 2 | 3.98 |
